Consider four compounds from patent US11247982B2, “NMDA receptor modulators, compositions comprising same and use of these compounds in the treatment of diseases involving the central nervous system” (ADPUERIVITAM, priority 2017, dated 2022).

This assay deals with NMDA receptors. In words: Whole-cell patch-clamp of NMDA currents in cultured rat embryonic hippocampal neurons. To be noted: for A. NMDA current: Summary: 10 μM test compound; for C. Channel closing kinetics: T run-down (ms) / C. Channel closing kinetics: Tau (s) / D. Desensitization: Slope (pA/s) / C. Channel closing kinetics: Max slope (pA/s) / B. Channel opening kinetics: Min slope (pA/s) / C. Channel closing kinetics: Run down slope (pA/s) / B. Channel opening kinetics: Run-up slope (pA/s) / B. Channel opening kinetics: T run-up (ms) / B. Channel opening kinetics: Time to peak (ms): 10 μM test compound vs NMDA alone; for C. Channel closing kinetics: T run-down (ms): closing time between 90% and 10% of max current; for C. Channel closing kinetics: T run-down (ms) / C. Channel closing kinetics: Tau (s) / D. Desensitization: Slope (pA/s) / C. Channel closing kinetics: Max slope (pA/s) / B. Channel opening kinetics: Min slope (pA/s) / C. Channel closing kinetics: Run down slope (pA/s) / B. Channel opening kinetics: Run-up slope (pA/s) / B. Channel opening kinetics: T run-up (ms) / B. Channel opening kinetics: Time to peak (ms) / A. NMDA current: Width 50 (ms) / A. NMDA current: Peak area (pA · s): (n) = cells; for C. Channel closing kinetics: Tau (s): closing time of 50% of the channels (half-life); for D. Desensitization: Slope (pA/s): desensitization speed during the application of NMDA; for C. Channel closing kinetics: Max slope (pA/s): greatest closing speed; for B. Channel opening kinetics: Min slope (pA/s): greatest opening speed; for C. Channel closing kinetics: Run down slope (pA/s): mean closing speed during T run-down; for B. Channel opening kinetics: Run-up slope (pA/s): mean opening speed during T run-up; for B. Channel opening kinetics: T run-up (ms): opening time between 10% and 90% of max current; for B. Channel opening kinetics: Time to peak (ms): time to reach the maximum current; for A. NMDA current: Width 50 (ms) / A. NMDA current: Peak area (pA · s) / A. NMDA current: Height (pA): 10 μM test compound with 100 μM NMDA + 5 μM L-glycine vs NMDA alone; for A. NMDA current: Width 50 (ms): duration of current above 50% of Height; for A. NMDA current: Peak area (pA · s): total current integrated over time; for A. NMDA current: Height (pA): −60 mV, maximum current, (n) = number of cells; for A. NMDA current: Washable / B. Channel opening kinetics: Washable / C. Channel closing kinetics: Washable / D. Desensitization: Washable: persistence of effect, NMDA wash vs NMDA + test compound. The assay is classed as cell-based. The procedure:
Female Wistar rats in gestation with 17-day-old embryos (E17) were obtained from Janvier Labs. On the day of receipt of the animals, the rat is sacrificed and the embryos are dissected under sterile conditions to remove their brain, which is then micro-dissected in GBSS (Gey's balanced salt solution) medium to obtain the hippocampus from the two hemispheres, while discarding the meninges. The tissues harvested from at least five embryos are placed in 2 ml of DMEM medium (registered trademark) (Dulbecco's modified Eagle's medium—from Life Technologies) with 2% of fetal calf serum, 2 mM of glutamine, 0.1 mg/mL of penicillin-streptomycin antibiotic mixture (Life Technologies) and subjected to mechanical dissociation of the cells by passing through round-ended glass pipettes with an inside diameter decreasing from 0.5 to 0.2 mm. The cells are counted and 100 μl of suspension containing 25×10^3 cells are placed on a glass slide coated with polylysine (poly-D-lysine hydrobromide from 75 to 150 kDa, from Sigma) of Ø 12 mm, in 12-well culture plates and incubated for 2 hours at 37° C. under an atmosphere containing 5% of CO2 to allow cell adhesion. A volume of 2 mL of culture medium is added gently: Neurobasal (registered trademark) with 1/50 (v:v) serum-free supplement B-27® (Life Technologies), 2 mM of glutamine, 0.1 mg/ml of penicillin-streptomycin antibiotic mixture (from Life Technologies), and incubation is again performed under the same conditions. Half of the medium is replaced twice a week for maintenance. The neuronal cells will be able to differentiate over a period of 12 to 30 days. The cultures are monitored by phase-contrast microscopy: the extension of the neurites and of the synaptic connections is observed for the neurons, which represent the majority of the cells, while a few astrocytes are also present.
The electrophysiology post consists of an Olympus IMT-2 model inverted phase-contrast microscope placed on a TMC antivibration table in a Faraday cage. The installation also comprises an SF-77B model Warner multichannel perfusion system, a Burleigh PCS-5000 model 3D-micromanipulator system holding the microelectrode probe, a Warner PC-505 model patch-clamp amplifier and a PowerLab 8/35 model 8-channel analog-digital interface from ADInstruments. The glass microelectrode is manufactured with thin-walled borosilicate capillary tubes (1.5 OD×1.17 ID×100 L mm, from Harvard Apparatus) and prepared with the Narishige PC10 model vertical electrode puller to obtain an electrical resistance of about 5 MOhm. The electrode of the pipette is filled with the intracellular medium composed of (in mM): 100 CsF, 40 CsCl, 1.2 CaCl2, 20 HEPES, 10 EGTA, pH=7.4 (adjusted with CsOH).
The culture on its slide is placed in a 60 mm Petri dish with 2 ml of extracellular medium composed of (in mM): 140 NaCl, 5 KCl, 1.2 CaCl2, 1.5 MgCl2, 12 HEPES, 12 Na-HEPES, 33 glucose, pH=7.4.
The neuron selected is patched in the whole cell configuration. The maintenance potential is set at −60 mV.
The assembled glass microtubes of square cross section of the perfusion system each provide a stable stream of different composition. The “TTX” default medium corresponds to the extracellular medium to which is added 1 μM tetrodotoxin. The “NMDA” application medium is “TTX” supplemented with 100 μM of NMDA (N-methyl-D-aspartate) as agonist, and 5 μM of L-glycine as co-agonist. The “NMDA+ test compound” medium corresponds to the “NMDA” supplemented with 10 μM of the test compound. The “NMDA wash” is identical to the “NMDA” medium.
As a general rule, three applications of each test compound are performed on the patched cell, for 2 seconds at intervals of 3 minutes (to allow inversion of desensitization). The sequence of the applications is: 1) “NMDA”, 2) “NMDA+ test compound”, 3) “NMDA wash”. The “TTX” medium is applied by default, before and after each application of test compound. […]

For `Cc1ccc2[nH]c(=O)c(C3=NN(C(=O)CCC(=O)O)C(c4ccc(Br)cc4)C3)c(-c3ccccc3)c2c1` (stereo not shown) [DQP1105, reference compound], the “antagonistic effect on the maximum current amplitude” value (concentration of less than 1 μM) was “maintained at the same level”.
With `O=C(C[C@]1(O)C(=O)N(CCc2c[nH]c3ccccc23)c2ccccc21)c1cccc(Cl)c1` [Molecule 1], the “A. NMDA current: Summary” value is “Antagonist (4+)”, the “C. Channel closing kinetics: T run-down (ms)” value is 12 ± 6% (7), the “C. Channel closing kinetics: Tau (s)” value is listed as 29 ± 13% (6) and the “D. Desensitization: Slope (pA/s)” value is −59 ± 8% (7). Moreover, the “C. Channel closing kinetics: Max slope (pA/s)” value is listed as −27 ± 10% (7), the “B. Channel opening kinetics: Min slope (pA/s)” value is −35 ± 12% (7), the “C. Channel closing kinetics: Run down slope (pA/s)” value is given as −48 ± 8% (7) and the “B. Channel opening kinetics: Run-up slope (pA/s)” value is reported as −45 ± 7% (7). Moreover, the “B. Channel opening kinetics: T run-up (ms)” value is 3 ± 3% (7), the “B. Channel opening kinetics: Time to peak (ms)” value is given as 1 ± 4% (7), the “A. NMDA current: Width 50 (ms)” value is on record as 0 ± 9% (7) and the “A. NMDA current: Peak area (pA · s)” value is −37 ± 12% (7). Further, the “A. NMDA current: Height (pA)” value is listed as −43 ± 8% (7), the “A. NMDA current: Washable” value is on record as “No”, the “B. Channel opening kinetics: Washable” value is on record as “No” and the “C. Channel closing kinetics: Washable” value is on record as “No”. Further, the “D. Desensitization: Washable” value was “No”.
With `O=C(C[C@]1(O)C(=O)N(CCc2c[nH]c3ccccc23)c2ccccc21)c1ccccc1Cl` [Molecule 2], the “A. NMDA current: Summary” value is reported as “Antagonist (6+)”, the “C. Channel closing kinetics: T run-down (ms)” value is −15 ± 5% (7), the “C. Channel closing kinetics: Tau (s)” value is 44 ± 28% (7) and the “D. Desensitization: Slope (pA/s)” value was −70 ± 17% (7). Further, the “C. Channel closing kinetics: Max slope (pA/s)” value is recorded as −28 ± 8% (7), the “B. Channel opening kinetics: Min slope (pA/s)” value is −25 ± 9% (7), the “C. Channel closing kinetics: Run down slope (pA/s)” value is on record as −63 ± 13% (7) and the “B. Channel opening kinetics: Run-up slope (pA/s)” value is given as −61 ± 10% (7). In addition, the “B. Channel opening kinetics: T run-up (ms)” value was −16 ± 13% (7), the “B. Channel opening kinetics: Time to peak (ms)” value is on record as −7 ± 4% (7), the “A. NMDA current: Width 50 (ms)” value is −49 ± 14% (7) and the “A. NMDA current: Peak area (pA · s)” value is on record as −65 ± 13% (7). The “A. NMDA current: Height (pA)” value is −66 ± 10% (7), the “A. NMDA current: Washable” value is “Yes”, the “B. Channel opening kinetics: Washable” value was “(Yes/No)” and the “C. Channel closing kinetics: Washable” value is “(Yes/No)”. Further, the “D. Desensitization: Washable” value is “(Yes)”.
Turning to `O=C(C[C@]1(O)C(=O)N(CCc2c[nH]c3ccccc23)c2ccccc21)c1ccccc1F` [Molecule 3], the “A. NMDA current: Summary” value was “Antagonist (2+)”, the “C. Channel closing kinetics: T run-down (ms)” value is given as 2 ± 4% (13), the “C. Channel closing kinetics: Tau (s)” value is listed as 17 ± 5 (13) % and the “D. Desensitization: Slope (pA/s)” value was −43 ± 8% (13). Further, the “C. Channel closing kinetics: Max slope (pA/s)” value is recorded as −22 ± 4% (13), the “B. Channel opening kinetics: Min slope (pA/s)” value is given as −22 ± 4 (13) %, the “C. Channel closing kinetics: Run down slope (pA/s)” value is −30 ± 8% (13) and the “B. Channel opening kinetics: Run-up slope (pA/s)” value is reported as −23 ± 5% (13). In addition, the “B. Channel opening kinetics: T run-up (ms)” value is listed as −8 ± 6% (13), the “B. Channel opening kinetics: Time to peak (ms)” value is on record as −5 ± 3% (13), the “A. NMDA current: Width 50 (ms)” value is recorded as −10 ± 7% (13) and the “A. NMDA current: Peak area (pA · s)” value was −16 ± 8% (13). Besides, the “A. NMDA current: Height (pA)” value was −24 ± 7% (13), the “A. NMDA current: Washable” value is given as “(No/Yes)”, the “B. Channel opening kinetics: Washable” value was “(Yes/No)” and the “C. Channel closing kinetics: Washable” value was “No”. Moreover, the “D. Desensitization: Washable” value was “No”.
